Source: paper PMC11285948, “The effects of CYP2B6 inactivators on the metabolism of ciprofol” (PLOS ONE, 2024)
Values joined by “and” are separate entries in the source; they are usually repeats but may differ in a detail not shown here. Identical values can stand only once.

Tests used:
[1] = test system: human liver microsomes (HLMs); assay: Ciprofol metabolism in HLM incubation system (incubation time, protein concentration, enzyme kinetics); assay type: in vitro ADME; settings: HLMs; for ciprofol concentration in incubation system (Liver microsomal protein concentration): ciprofol 40 μg·mL^-1, 60 min, C1-C3 and Mean
Method: The volume of the incubation system was 200 μL and included 2 μL of substrate (ciprofol), 8 μL of rat liver microsomes (RLMs) or 6 μL of human liver microsomes (HLMs), 12 μL of NADPH generation system of solution (solution A 10 μL, solution B 2 μL), and the remaining volume was PBS. The incubation was performed in a water bath at a constant temperature of 37°C, and each sample was incubated three times in parallel.
The incubation system was removed from the water bath, and the reaction was terminated immediately by adding 800 μL of reaction termination solution (acetonitrile solution containing 5 μg·mL^-1 D6-ciprofol at 4°C). The mixture was vortexed for 2 min and centrifuged for 15 min, after which the supernatant was transferred to an autosampler vial for HPLC-MS/MS detection.
The concentrations of ciprofol and liver microsomal proteins in the RLM incubation system were set at 25 μg·mL^-1 and 0.8 mg·mL^-1, respectively, whereas those in the HLM incubation system were set at 40 μg·mL^-1 and 0.6 mg·mL^-1, respectively. Samples were obtained and assayed after 0, 10, 20, 30, 40, 60, 80, 100 and 120 min of incubation, and the optimum incubation time was determined according to the decreasing trend in ciprofol concentration.
The ciprofol concentrations in the RLM and HLM incubation systems were set at 25 and 40 μg·mL^-1, respectively. The liver microsomal protein concentrations were 0, 0.1, 0.2, 0.4, 0.6, 0.8 and 1.0 mg·mL^-1. The optimal protein concentration in the incubation system was determined based on the reduction of ciprofol (ΔC) after 40 min of incubation in RLMs and 60 min in HLMs.
The liver microsomal protein concentrations in the RLM incubation system and the HLM incubation system were 0.8 mg·mL^-1 and 0.6 mg·mL^-1, and the cells were incubated for 40 min and 60 min, respectively. The ciprofol concentrations in the incubation system were set at 4, 8, 16, 32, 48 and 80 μg·mL^-1, and the kinetic parameters of ciprofol metabolism were investigated based on ΔC values at different initial ciprofol concentrations (C0).
The substrate elimination method was employed in this study, and GraphPad Prism 8.0.2 software was used for statistical processing, including determination of the kinetic parameters of ciprofol metabolism and the IC50 values of psoralen and clopidogrel for ciprofol metabolism. The maximum velocity (Vmax), Michaelis constant (Km) and intrinsic clearance (CLint) were calculated using the […]: V=Vmax×[S]/Km+[S] CLint=Vmax/Km

[2] = Stability of ciprofol QC samples in rat plasma; assay type: physicochemical; parameters: calculated concentration, mean: unit: ng/mL; settings: for ciprofol found after storage, Autosampler / ciprofol found after storage, Room Temperature / ciprofol found after storage, Freeze–Thaw / ciprofol found after storage, Long-Term Storage / Stability: mean calculated concentration / Stability: calculated concentration: rat plasma; for ciprofol found after storage, Autosampler / ciprofol found after storage, Room Temperature / ciprofol found after storage, Freeze–Thaw / ciprofol found after storage, Long-Term Storage: n = 5; for Stability: calculated concentration: single replicates
Method: 5 μL of IS solution (2.5 μg·mL^-1 D6-ciprofol) was added to 100 μL of plasma and mixed. Then, 300 μL of acetonitrile was added. The mixture was vortexed for 2 min and centrifuged for 10 min, and the supernatant was transferred to an autosampler vial for HPLC-MS/MS detection.
To investigate the stability of ciprofol under a variety of conditions, three groups of liver microsome QC sample solutions were prepared, and one group was immediately processed and analysed as described in Section 2.4.2. Another group was stored at room temperature for 8 hours before treatment and assessment. The other group was treated and placed in the autosampler (4°C) for 24 h and subsequently analysed. In addition, simulated plasma QC samples were prepared in five groups: one group was processed and measured immediately as described in Section 2.4.3, and another group was placed in the autosampler for 24 h after treatment. The other three groups were placed at room temperature for 8 h, stored at -40°C for 30 d, frozen and thawed three times, respectively, and then processed and detected as described in Section 2.4.3. All the above samples were tested in parallel in five batches.

[3] = Autosampler for 24 h, QC level H
[4] = Autosampler for 24 h, QC level L
[5] = Autosampler for 24 h, QC level M
[6] = Feeeze - Thaw for three times, QC level H
[7] = Feeeze - Thaw for three times, QC level L
[8] = Feeeze - Thaw for three times, QC level M
[9] = Room - Temperature for 8 h, QC level H
[10] = Room - Temperature for 8 h, QC level L
[11] = Room - Temperature for 8 h, QC level M

## CC(C)c1cccc([C@H](C)C2CC2)c1O [ciprofol]
[1]; Cprotein 0.1 mg/mL
  ciprofol concentration in incubation system (Liver microsomal protein concentration): 35.11 µg/mL and 36.09 µg/mL and 35.34 µg/mL and 35.51 µg/mL
[1]; Cprotein 0.2 mg/mL
  ciprofol concentration in incubation system (Liver microsomal protein concentration): 30.78 µg/mL and 30.52 µg/mL and 29.4 µg/mL and 30.23 µg/mL
[1]; Cprotein 0.4 mg/mL
  ciprofol concentration in incubation system (Liver microsomal protein concentration): 24.5 µg/mL and 24.31 µg/mL and 22.53 µg/mL and 23.78 µg/mL
[1]; Cprotein 0.6 mg/mL
  ciprofol concentration in incubation system (Liver microsomal protein concentration): 20.49 µg/mL and 20.86 µg/mL and 19.64 µg/mL and 20.33 µg/mL
[1]; Cprotein 0.8 mg/mL
  ciprofol concentration in incubation system (Liver microsomal protein concentration): 19.89 µg/mL and 20.13 µg/mL and 19.02 µg/mL and 19.68 µg/mL
[1]; Cprotein 1 mg/mL
  ciprofol concentration in incubation system (Liver microsomal protein concentration): 19.11 µg/mL and 19.68 µg/mL and 20.54 µg/mL and 19.78 µg/mL
[1]; CLint=Vmax/Km
  CLint of ciprofol: 1.06 mL·min^-1·mg protein^-1
[2]; QC sample level H, mean of H1-H5
  calculated concentration, mean: 1597.51
[2]; QC 30 ng·mL^-1, autosampler for 24 h after treatment
  ciprofol found after storage, Autosampler: 32.80 ± 1.93 ng/mL
[2]; QC 30 ng·mL^-1, room temperature for 8 h
  ciprofol found after storage, Room Temperature: 30.50 ± 2.27 ng/mL
[2]; QC 30 ng·mL^-1, three freeze–thaw cycles
  ciprofol found after storage, Freeze–Thaw: 33.49 ± 2.03 ng/mL
[2]; QC 30 ng·mL^-1, −40°C for 30 days
  ciprofol found after storage, Long-Term Storage: 32.70 ± 2.85 ng/mL
[2]; QC 250 ng·mL^-1, autosampler for 24 h after treatment
  ciprofol found after storage, Autosampler: 250.78 ± 12.31 ng/mL
[2]; QC 250 ng·mL^-1, room temperature for 8 h
  ciprofol found after storage, Room Temperature: 227.31 ± 5.60 ng/mL
[2]; QC 250 ng·mL^-1, three freeze–thaw cycles
  ciprofol found after storage, Freeze–Thaw: 245.21 ± 3.43 ng/mL
[2]; QC 250 ng·mL^-1, −40°C for 30 days
  ciprofol found after storage, Long-Term Storage: 242.73 ± 9.08 ng/mL
[2]; QC 1600 ng·mL^-1, autosampler for 24 h after treatment
  ciprofol found after storage, Autosampler: 1576.27 ± 41.67 ng/mL
[2]; QC 1600 ng·mL^-1, room temperature for 8 h
  ciprofol found after storage, Room Temperature: 1464.24 ± 98.79 ng/mL
[2]; QC 1600 ng·mL^-1, three freeze–thaw cycles
  ciprofol found after storage, Freeze–Thaw: 1604.92 ± 96.88 ng/mL
[2]; QC 1600 ng·mL^-1, −40°C for 30 days
  ciprofol found after storage, Long-Term Storage: 1597.51 ± 83.93 ng/mL
[2]; -40℃ for 30 d, QC level L
  Stability: mean calculated concentration: 31.38 ng/mL
  Stability: calculated concentration: 34.12 ng/mL and 32.66 ng/mL and 29.27 ng/mL and 33.13 ng/mL and 27.74 ng/mL
[2]; -40℃ for 30 d, QC level M
  Stability: mean calculated concentration: 242.73 ng/mL
  Stability: calculated concentration: 234.27 ng/mL and 256.93 ng/mL and 236.05 ng/mL and 240.78 ng/mL
[2]; [3]
  Stability: mean calculated concentration: 1576.27 ng/mL
  Stability: calculated concentration: 1522.23 ng/mL and 1628.44 ng/mL and 1549.96 ng/mL and 1580.01 ng/mL and 1600.71 ng/mL
[2]; [4]
  Stability: mean calculated concentration: 31.48 ng/mL
  Stability: calculated concentration: 32.65 ng/mL and 31.94 ng/mL and 29.92 ng/mL and 33.65 ng/mL and 29.23 ng/mL
[2]; [5]
  Stability: mean calculated concentration: 250.78 ng/mL
  Stability: calculated concentration: 249.99 ng/mL and 245.49 ng/mL and 259.61 ng/mL and 233.66 ng/mL and 265.15 ng/mL
[2]; [6]
  Stability: mean calculated concentration: 1604.92 ng/mL
  Stability: calculated concentration: 1500.04 ng/mL and 1659.28 ng/mL and 1498.65 ng/mL and 1682.66 ng/mL and 1683.96 ng/mL
[2]; [7]
  Stability: mean calculated concentration: 32.14 ng/mL
  Stability: calculated concentration: 33.17 ng/mL and 29.49 ng/mL and 30.69 ng/mL and 33.26 ng/mL and 34.09 ng/mL
[2]; [8]
  Stability: mean calculated concentration: 245.21 ng/mL
  Stability: calculated concentration: 248.65 ng/mL and 241.72 ng/mL and 249.13 ng/mL and 243.02 ng/mL and 243.50 ng/mL
[2]; [9]
  Stability: mean calculated concentration: 1464.24 ng/mL
  Stability: calculated concentration: 1500.17 ng/mL and 1462.05 ng/mL and 1317.85 ng/mL and 1591.16 ng/mL and 1449.95 ng/mL
[2]; [10]
  Stability: mean calculated concentration: 29.27 ng/mL
  Stability: calculated concentration: 29.52 ng/mL and 32.22 ng/mL and 27.05 ng/mL and 30.35 ng/mL and 27.24 ng/mL
[2]; [11]
  Stability: mean calculated concentration: 227.31 ng/mL
  Stability: calculated concentration: 220.38 ng/mL and 226.72 ng/mL and 228.84 ng/mL and 235.64 ng/mL and 224.99 ng/mL
